This is an account of results in publication PMC5791972 (PLoS ONE, 2018).

One assay addresses T1, PDE6 (non-selective) (Bos taurus, UniProt P11541+P23439).
T1 construct: PDE6 bovine [3H]cGMP; tissue Cerep (contract assay); host or cells: bovine retina
T1 sequence (P11541 2-856 limits assumed): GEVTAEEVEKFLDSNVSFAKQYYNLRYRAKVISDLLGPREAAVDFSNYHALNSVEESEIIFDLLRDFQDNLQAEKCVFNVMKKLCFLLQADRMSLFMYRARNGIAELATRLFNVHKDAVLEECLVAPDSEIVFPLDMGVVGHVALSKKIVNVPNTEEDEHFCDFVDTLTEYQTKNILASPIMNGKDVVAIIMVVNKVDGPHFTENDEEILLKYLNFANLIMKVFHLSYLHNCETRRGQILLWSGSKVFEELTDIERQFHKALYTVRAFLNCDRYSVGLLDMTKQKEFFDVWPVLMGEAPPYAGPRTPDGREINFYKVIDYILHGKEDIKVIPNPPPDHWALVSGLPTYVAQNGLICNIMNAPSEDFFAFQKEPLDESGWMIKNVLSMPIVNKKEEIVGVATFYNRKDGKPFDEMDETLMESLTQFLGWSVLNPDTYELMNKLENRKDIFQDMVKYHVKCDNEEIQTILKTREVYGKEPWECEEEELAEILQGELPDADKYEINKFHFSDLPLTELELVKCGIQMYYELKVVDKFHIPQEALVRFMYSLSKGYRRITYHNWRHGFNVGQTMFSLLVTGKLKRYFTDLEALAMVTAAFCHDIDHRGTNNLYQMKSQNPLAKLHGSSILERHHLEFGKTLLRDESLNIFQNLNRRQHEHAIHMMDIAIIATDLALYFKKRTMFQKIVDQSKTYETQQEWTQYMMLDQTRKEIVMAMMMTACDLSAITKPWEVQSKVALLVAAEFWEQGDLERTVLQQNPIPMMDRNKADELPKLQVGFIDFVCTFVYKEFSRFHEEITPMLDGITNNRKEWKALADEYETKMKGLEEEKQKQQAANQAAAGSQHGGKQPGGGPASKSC
T1 sequence (P23439 2-850 limits assumed): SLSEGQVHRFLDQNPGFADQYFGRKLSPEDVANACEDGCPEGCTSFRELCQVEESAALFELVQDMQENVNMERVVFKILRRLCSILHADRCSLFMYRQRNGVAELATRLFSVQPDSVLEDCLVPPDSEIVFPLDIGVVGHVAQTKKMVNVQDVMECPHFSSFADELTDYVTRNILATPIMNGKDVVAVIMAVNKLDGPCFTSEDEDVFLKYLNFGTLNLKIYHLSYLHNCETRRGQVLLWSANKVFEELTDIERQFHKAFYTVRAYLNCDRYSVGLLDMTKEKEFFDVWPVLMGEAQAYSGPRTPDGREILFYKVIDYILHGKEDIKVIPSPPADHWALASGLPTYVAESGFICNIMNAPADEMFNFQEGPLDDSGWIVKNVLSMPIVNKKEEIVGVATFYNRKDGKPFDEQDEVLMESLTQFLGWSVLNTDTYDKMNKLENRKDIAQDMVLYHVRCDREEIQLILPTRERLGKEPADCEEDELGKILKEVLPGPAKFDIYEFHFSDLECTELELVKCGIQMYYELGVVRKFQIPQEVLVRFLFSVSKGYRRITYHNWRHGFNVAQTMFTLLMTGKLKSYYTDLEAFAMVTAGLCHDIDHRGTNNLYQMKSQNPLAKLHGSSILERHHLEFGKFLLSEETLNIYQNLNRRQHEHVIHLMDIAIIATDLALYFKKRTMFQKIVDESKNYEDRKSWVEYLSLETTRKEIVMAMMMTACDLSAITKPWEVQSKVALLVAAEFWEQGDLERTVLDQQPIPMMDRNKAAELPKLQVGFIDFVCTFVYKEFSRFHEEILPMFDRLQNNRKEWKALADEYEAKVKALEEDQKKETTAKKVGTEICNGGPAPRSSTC
The assay can be described thus: enzyme assay. The format is biochemical, bovine.

The target in another assay is T2, tyrosine hydroxylase (Rattus norvegicus, UniProt P04177).
T2 construct: rat striatum; from tissue; host or cells: rat striatum
Description: enzyme assay. The format is biochemical.

The target in a further assay is T3, α2C (h) (Homo sapiens, UniProt P18825).
T3 construct: host or cells: CHO cells
T3 sequence (P18825 1-462): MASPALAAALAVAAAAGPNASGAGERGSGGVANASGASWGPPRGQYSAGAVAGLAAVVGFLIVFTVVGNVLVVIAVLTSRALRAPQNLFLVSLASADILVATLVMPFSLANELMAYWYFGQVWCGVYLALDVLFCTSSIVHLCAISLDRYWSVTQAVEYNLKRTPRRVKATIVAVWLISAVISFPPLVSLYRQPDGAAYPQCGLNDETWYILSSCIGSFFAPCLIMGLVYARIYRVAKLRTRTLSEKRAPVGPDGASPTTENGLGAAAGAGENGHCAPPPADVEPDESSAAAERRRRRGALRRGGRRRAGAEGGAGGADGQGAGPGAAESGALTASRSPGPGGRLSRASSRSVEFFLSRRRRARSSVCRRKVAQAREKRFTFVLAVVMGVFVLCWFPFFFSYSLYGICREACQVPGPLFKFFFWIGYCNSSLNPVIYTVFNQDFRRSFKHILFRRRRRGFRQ
The format is binding.

The next assay deals with T4, BLT1 (LTB4) (h) (Homo sapiens, UniProt Q15722).
T4 construct: host or cells: CHO cells
The format is binding.

The next assay addresses T5, AR (h) (Homo sapiens, UniProt P10275, T878A).
T5 construct: AR (h) LNCaP cells [3H]methyltrienolone; host or cells: LNCaP cells (cytosol)
T5 sequence (P10275 1-920 T878A): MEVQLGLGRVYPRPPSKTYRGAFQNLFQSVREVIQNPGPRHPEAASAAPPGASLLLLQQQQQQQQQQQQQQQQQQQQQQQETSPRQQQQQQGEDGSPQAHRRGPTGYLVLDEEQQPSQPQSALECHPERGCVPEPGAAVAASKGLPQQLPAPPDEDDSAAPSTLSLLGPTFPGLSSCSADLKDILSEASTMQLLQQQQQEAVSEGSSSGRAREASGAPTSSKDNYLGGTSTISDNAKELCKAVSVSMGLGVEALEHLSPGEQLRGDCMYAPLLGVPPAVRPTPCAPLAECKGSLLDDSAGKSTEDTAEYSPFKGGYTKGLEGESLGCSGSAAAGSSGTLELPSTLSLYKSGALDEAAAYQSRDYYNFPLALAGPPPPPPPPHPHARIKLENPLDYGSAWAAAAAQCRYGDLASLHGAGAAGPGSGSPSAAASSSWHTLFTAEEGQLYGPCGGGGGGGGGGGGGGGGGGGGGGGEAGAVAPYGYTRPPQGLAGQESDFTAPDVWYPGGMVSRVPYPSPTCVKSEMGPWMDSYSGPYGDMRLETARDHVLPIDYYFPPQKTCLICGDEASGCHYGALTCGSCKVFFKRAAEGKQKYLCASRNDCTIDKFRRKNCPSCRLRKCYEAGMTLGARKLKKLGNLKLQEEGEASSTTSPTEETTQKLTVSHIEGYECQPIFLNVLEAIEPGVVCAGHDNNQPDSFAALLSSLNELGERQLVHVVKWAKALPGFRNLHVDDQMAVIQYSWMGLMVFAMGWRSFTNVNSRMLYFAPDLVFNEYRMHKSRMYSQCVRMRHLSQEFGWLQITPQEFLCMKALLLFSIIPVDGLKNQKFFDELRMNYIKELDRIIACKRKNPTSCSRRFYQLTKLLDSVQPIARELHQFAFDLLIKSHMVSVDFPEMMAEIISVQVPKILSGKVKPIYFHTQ
The format is binding.

The target of the next assay is CaMK2α (h) (Homo sapiens, UniProt Q9UQM7). The assay can be described thus: enzyme assay. The assay is classed as biochemical.
Another assay addresses T6, α2A (h) (Homo sapiens, UniProt P08913).
T6 construct: host or cells: CHO cells
T6 sequence (P08913 1-465): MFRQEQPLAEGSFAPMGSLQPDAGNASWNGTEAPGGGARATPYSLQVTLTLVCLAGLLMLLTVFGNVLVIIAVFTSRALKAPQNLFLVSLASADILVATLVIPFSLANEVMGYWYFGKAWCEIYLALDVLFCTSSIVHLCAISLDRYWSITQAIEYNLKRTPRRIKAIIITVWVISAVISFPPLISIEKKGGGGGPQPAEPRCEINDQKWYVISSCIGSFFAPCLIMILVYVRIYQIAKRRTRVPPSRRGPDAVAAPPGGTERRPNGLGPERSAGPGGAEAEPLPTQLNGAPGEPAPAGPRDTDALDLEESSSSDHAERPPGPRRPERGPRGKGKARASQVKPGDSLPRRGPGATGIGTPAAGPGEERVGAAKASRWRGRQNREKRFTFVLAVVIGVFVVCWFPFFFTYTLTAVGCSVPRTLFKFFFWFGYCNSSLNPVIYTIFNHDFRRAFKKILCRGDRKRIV
The assay is classed as binding.

The target of another assay is T7, β1 (h) (Homo sapiens, UniProt P08588).
T7 construct: host or cells: HEK-293 cells
The assay is classed as binding.

The target in another assay is T8, GABA transaminase (Rattus norvegicus, UniProt P50554).
T8 construct: rat brain; from tissue; host or cells: rat brain
The assay can be described thus: enzyme assay. The format is biochemical.

Another assay addresses T9, H2 (h) (Homo sapiens, UniProt P25021).
T9 construct: host or cells: CHO cells
The assay is classed as binding.

Assay [1] addresses T10, phosphatase 1B (h) (PTP1B) (Homo sapiens, UniProt P18031).
T10 construct: host or cells: E. coli
T10 sequence (P18031 1-435): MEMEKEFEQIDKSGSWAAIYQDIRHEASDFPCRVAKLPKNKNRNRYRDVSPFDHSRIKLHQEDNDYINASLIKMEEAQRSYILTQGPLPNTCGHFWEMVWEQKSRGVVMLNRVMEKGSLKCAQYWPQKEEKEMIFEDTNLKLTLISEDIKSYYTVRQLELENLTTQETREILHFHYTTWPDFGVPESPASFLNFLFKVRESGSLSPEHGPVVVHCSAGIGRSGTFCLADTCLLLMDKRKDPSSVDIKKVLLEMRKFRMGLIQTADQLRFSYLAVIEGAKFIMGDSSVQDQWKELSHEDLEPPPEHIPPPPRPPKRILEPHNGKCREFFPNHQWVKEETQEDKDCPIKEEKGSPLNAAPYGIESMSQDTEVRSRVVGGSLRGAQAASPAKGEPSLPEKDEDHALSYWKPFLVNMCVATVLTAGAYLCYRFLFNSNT
Description: enzyme assay. The format is biochemical.

The target in another assay is T11, A3 (h) (Homo sapiens, UniProt P0DMS8).
T11 construct: host or cells: HEK-293 cells
T11 sequence (P0DMS8 1-318): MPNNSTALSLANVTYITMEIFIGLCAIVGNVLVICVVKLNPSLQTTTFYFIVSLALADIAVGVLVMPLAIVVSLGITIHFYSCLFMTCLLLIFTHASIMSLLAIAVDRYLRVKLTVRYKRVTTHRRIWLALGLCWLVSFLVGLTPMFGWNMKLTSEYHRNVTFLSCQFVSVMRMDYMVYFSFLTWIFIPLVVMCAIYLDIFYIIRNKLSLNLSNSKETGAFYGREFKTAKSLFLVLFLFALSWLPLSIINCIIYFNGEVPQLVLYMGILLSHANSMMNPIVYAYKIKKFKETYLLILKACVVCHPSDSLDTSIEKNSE
The assay is classed as binding.

One may read the IC50 as the point on the concentration scale where inhibition reaches its midpoint. Low values mean inhibition by little substance, high ones a need for much substance.

“And” between values parts separate entries of the source, which are not always exact repeats. Equal values may be shown once. No end group written: not given here.

T8 sequence (P50554 28-500): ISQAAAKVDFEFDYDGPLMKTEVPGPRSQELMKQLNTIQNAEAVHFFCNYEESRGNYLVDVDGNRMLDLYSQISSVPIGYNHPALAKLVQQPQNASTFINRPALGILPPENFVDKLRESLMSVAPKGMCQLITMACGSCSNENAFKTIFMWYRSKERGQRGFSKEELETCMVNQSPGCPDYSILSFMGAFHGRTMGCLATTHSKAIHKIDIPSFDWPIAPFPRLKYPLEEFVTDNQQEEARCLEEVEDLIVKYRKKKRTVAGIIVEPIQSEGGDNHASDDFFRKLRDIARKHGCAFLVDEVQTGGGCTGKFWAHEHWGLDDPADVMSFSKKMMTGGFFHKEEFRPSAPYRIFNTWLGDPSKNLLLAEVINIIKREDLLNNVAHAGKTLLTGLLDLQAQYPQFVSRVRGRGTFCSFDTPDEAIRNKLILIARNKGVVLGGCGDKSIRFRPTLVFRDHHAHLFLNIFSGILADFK
T2 sequence (P04177 whole entry): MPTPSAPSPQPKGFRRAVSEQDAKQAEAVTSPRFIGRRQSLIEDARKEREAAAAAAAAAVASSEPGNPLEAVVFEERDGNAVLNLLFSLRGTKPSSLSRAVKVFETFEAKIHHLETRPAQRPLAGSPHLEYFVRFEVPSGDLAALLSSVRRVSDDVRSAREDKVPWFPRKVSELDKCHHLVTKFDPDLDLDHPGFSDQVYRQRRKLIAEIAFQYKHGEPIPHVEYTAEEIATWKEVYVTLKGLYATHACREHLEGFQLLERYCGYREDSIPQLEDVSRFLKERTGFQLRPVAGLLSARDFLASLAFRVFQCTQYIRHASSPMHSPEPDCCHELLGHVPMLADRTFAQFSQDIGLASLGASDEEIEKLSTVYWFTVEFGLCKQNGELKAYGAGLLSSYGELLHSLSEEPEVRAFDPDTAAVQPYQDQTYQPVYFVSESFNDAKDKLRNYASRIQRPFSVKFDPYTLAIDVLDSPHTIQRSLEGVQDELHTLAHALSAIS
T9 sequence (P25021 whole entry): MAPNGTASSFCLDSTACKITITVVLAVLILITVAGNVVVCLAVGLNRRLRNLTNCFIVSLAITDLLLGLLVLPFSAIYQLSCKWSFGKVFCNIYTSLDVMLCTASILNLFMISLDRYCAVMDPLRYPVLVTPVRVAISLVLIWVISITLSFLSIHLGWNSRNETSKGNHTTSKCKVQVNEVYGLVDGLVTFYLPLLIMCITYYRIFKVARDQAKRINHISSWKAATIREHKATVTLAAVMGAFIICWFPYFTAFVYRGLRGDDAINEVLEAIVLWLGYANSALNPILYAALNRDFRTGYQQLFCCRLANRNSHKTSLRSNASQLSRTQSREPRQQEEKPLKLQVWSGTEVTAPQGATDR
T7 sequence (P08588 whole entry): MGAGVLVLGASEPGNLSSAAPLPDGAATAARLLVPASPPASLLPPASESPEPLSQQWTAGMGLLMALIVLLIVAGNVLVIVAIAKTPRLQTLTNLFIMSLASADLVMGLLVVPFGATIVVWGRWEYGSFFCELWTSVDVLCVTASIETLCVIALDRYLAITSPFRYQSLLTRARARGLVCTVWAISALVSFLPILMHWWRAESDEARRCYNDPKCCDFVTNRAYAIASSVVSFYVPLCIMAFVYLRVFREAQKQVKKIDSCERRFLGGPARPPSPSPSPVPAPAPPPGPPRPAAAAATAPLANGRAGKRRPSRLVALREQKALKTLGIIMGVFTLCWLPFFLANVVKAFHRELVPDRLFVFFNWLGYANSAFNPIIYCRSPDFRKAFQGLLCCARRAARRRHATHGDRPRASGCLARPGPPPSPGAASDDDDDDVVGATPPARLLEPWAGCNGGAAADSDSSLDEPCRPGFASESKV
T4 sequence (Q15722 whole entry): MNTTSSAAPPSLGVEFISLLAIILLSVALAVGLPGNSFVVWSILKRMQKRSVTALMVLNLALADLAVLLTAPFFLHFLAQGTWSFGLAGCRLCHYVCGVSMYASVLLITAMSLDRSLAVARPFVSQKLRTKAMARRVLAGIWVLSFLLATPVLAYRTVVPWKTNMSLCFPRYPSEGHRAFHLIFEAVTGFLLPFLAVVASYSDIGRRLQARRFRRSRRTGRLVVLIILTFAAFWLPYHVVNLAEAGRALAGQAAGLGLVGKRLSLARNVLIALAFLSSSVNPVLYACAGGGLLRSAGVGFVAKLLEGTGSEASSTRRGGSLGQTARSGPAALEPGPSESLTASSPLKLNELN

Consider `CCCOc1ccccc1-c1nc2nn[nH]c2c(=O)[nH]1` [zaprinast, reference compound], for which, on PDE6 (non-selective), the IC50 came to 170 nM and the nH was determined as 0.7.

At tyrosine hydroxylase, `N[C@@H](Cc1ccc(O)c(I)c1)C(=O)O` [3-iodo L-tyrosine, reference compound] showed an IC50 of 610 nM and a nH of 1.0.

On to `CNC[C@H](O)c1ccc(O)c(O)c1` [epinephrine, reference compound], for which the nH at α2C (h) was found to be 1.1.

In the case of `CCCCC/C=C\C[C@@H](O)/C=C/C=C/C=C\[C@@H](O)CCCC(=O)O` [LTB4, reference compound], the nH on BLT1 (LTB4) (h) came to 0.8.

Turning to `C[C@@H]1CC2=CC(=O)CC[C@@H]2[C@H]2CC[C@@]3(C)[C@@H](CC[C@]3(C)O)[C@@H]21` [mibolerone, reference compound], on AR (h), the nH is 1.1 and 1.0.

As for KKALRRQEAVDAL [AIP, reference compound], at CaMK2α (h), the 50% inhibitory concentration (IC50) turned out to be 81 nM and the nH is on record as 1.0.

Regarding `COC(=O)[C@@H]1[C@H]2C[C@H]3c4[nH]c5ccccc5c4CCN3C[C@@H]2CC[C@@H]1O` [yohimbine, reference compound], on α2A (h), the nH is reported as 1.1.

At β1 (h), `CC(C)NCC(O)COc1ccc(CC(N)=O)cc1` (centres unmarked) [atenolol, reference compound] registered a nH of 1.0.

On GABA transaminase, `NOCC(=O)O` [AoAA, reference compound] displayed an IC50 of 130 nM and a nH of 1.7.

`CN/C(=N/CCSCc1nc[nH]c1C)NC#N` [cimetidine, reference compound] showed a nH on H2 (h) of 0.9.

In assay [1], ammonium molybdate [reference compound] registered an IC50 of 540 nM and a nH of 2.9.

Turning to `CNC(=O)[C@H]1O[C@@H](n2cnc3c(NCc4cccc(I)c4)ncnc32)[C@H](O)[C@@H]1O` [IB-MECA, reference compound], at A3 (h), the nH is reported as 0.8.
